Source: patent publication US20250289793A1, “MACROCYCLIC INHIBITORS OF ATP CITRATE LYASE” (Esperion Therapeutics, Inc., priority 2022, published 2025)

Experiments:
[1] = target: T1, ACLY (Homo sapiens (Human), UniProt P53396); assay: InCell Pulse assay (permeate HEK293 cells, bind to and stabilize ACLY); assay type: cell-based; conditions: HEK293 cells transfected with pICP-ACLY(FL)-ePL; 1 hour at 37° C., 55° C. heat pulse 10 minutes; read-out: InCell Pulse IC50 GMean
Description: HEK293 cells transfected for 24 hours with pICP-ACLY(FL)-ePL (3 μg DNA per T25 flask) using FuGene HD (Promega Corp.) were harvested and cryopreserved. On the day of the assay, the frozen transfected cells were thawed at 37° C., and the storage medium (DMEM with 2 mM L-Glutamine, 10% FBS and a final concentration of DMSO 10%) was exchanged with assay medium (OptiMEM; Gibco™, ThermoFischer Scientific). Compounds were 3-fold serially diluted in DMSO over 11-point concentration range. 100 nL of the corresponding dilutions were spotted into the assay plate (Greiner AG; 384 Well, PP, Small Volume, Deep Well, Natural, cat. no. 784201) followed by the addition of 20 μL of cell suspension adjusted with assay medium to 7.5E4 cells/mL. Subsequently, the plates were sealed and incubated for 1 hour at 37° C. Afterwards, the plates were fixed upside down in a rack and incubated in a 55° C. water bath for 10 minutes. Following this heat pulse step, plates were allowed to reach room temperature for 10 minutes and centrifuged for a few seconds at 1000 rpm and room temperature. 25 μL EA detection solution (working solution: 0.0167× InCell EA Reagent, 0.15× InCell Dilution Buffer, 0.167× InCell Lysis Buffer; 0.667× InCell Substrate Reagent; InCell Hunter Detection kit; Eurofins DiscoverX; cat. no. 96-0079) were added to each well. Afterwards, 42 μL were transferred from the assay plate to the detection plate (Corning Inc., 384-well Low Flange Black Flat Bottom Polystyrene NBS Microplate, cat. no. 3575), followed by an incubation for 1 hour at room temperature, a centrifugation step for 1 minute at 1000 rpm and the detection of the luminescence signal using an EnVision microplate reader (Perkin Elmer Inc.). Concentration-response curve-fitting and IC50 determination was performed using Evotec's in-house evaluation software APlus with a four-parameter non-linear regression fit model. Data was normalized to 0.5% (final concentration) DMSO as low/negative control and 1 μM (final concentration) NDI-094311 as high/positive control.

[2] = target: T1, ACLY; assay: Human ACLY (hACLY) RF/MS activity assay; assay type: biochemical; conditions: 1 nM hACLY; 30 min pre-incubation; 15 μM Coenzyme A, 50 μM ATP, 50 μM citrate; CoA to Acetyl-CoA by RF/MS; read-out: RFMS IC50 GMean
Description: Compounds of the disclosure were evaluated for their efficacy in inhibiting hACLY using rapid fire mass spectrometry (RF/MS).
The final reaction volume for each compound was 20 μl and consisted of buffer (50 mM Hepes pH 8.0, 10 mM MgCl2, 0.003% BSA, 0.01% Brij35, 50 mM NaCl, 4 mM DTT) and 1 nM hACLY, EV12992, PP6692) using Greiner, 384 well small volume, deep well plates (Cat #784201). A two-fold dilution series with a top concentration of 10 μM was used to record a concentration response curve. Both the substrate (CoA) and product (Acetyl-CoA) were quantified, and given a ratio. […] The final DMSO-concentration was 1% (v/v). Compounds were pre-incubated for 30 min with the buffered enzyme solution at RT (20° C.), and substrate solution was added (final concentrations: 15 μM Coenzyme A, 50 μM ATP and 50 μM citrate) to initiate the enzyme reaction. The enzyme reaction was incubated for additional 30 min at RT. The reaction was quenched upon addition of 40 μl of 5% Formic acid in H2O and centrifuged (4350 rpm at 20° C. for 10 min).
Product formation was quantified using a RF/MS-based method based on mass change of CoA (substrate) to Acetyl-CoA (product).

T1 sequence (P53396 whole entry): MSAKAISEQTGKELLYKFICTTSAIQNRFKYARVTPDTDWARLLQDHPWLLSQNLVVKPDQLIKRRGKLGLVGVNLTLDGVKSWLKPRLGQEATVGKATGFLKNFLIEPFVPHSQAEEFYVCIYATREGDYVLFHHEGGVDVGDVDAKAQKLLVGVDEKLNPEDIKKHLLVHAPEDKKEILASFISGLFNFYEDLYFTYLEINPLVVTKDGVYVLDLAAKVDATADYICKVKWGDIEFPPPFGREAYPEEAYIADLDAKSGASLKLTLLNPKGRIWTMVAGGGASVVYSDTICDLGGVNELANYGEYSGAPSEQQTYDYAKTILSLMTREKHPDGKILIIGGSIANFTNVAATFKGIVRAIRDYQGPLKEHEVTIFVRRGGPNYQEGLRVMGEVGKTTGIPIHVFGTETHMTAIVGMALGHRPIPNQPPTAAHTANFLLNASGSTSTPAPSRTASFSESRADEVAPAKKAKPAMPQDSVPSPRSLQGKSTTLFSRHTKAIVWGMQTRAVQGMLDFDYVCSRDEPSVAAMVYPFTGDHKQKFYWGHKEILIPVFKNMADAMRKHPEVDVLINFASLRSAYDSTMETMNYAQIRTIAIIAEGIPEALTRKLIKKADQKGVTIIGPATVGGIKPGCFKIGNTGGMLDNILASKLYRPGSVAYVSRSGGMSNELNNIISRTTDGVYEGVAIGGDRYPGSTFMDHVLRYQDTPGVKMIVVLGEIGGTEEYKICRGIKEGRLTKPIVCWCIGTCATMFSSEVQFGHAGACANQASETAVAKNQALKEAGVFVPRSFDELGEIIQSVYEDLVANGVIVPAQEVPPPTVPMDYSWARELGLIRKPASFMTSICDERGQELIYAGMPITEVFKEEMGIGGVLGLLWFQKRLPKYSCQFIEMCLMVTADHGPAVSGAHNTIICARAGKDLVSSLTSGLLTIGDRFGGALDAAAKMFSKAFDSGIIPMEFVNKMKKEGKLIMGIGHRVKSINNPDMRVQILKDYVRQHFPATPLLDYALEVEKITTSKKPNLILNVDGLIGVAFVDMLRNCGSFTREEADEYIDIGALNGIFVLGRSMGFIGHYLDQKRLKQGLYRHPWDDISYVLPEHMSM

| IC50 [1] | IC50 [2] | SMILES |
| --- | --- | --- |
| < 300 nM | < 20 nM | O=C1OCCOc2ccccc2-c2ccc(F)c(c2)NS(=O)(=O)c2cc1cc(Cl)c2O [Compound 23, 15-chloro-21-fluoro-16-hydroxy-8,11-dioxa-18lambda6-thia-19-azatetracyclo[18.3.1.1^13,17.0^2,7]pentacosa-1(24),2,4,6,13,15,17(25),20,22-nonaene-12,18,18-trione] |
| ≥ 50000 nM | 100 to 10000 nM | O=C1OCc2cccc(c2)Oc2cc(c(F)cc2F)NS(=O)(=O)c2cc1cc(Cl)c2O [Compound 34, 12-chloro-4,6-difluoro-11-hydroxy-9,9-dioxo-2,16-dioxa-9λ6-thia-8-azatetracyclo[16.3.1.13,7.110,14]tetracosa-1(22),3,5,7(24),10(23),11,13,18,20-nonaen-15-one] |
| 300 to 1000 nM | 100 to 10000 nM | N#Cc1ccc2c(c1)-c1cc(c(F)cc1F)NS(=O)(=O)c1cc(cc(Cl)c1O)C(=O)OC2 [Compound 86, 13-chloro-19,21-difluoro-14-hydroxy-10,16,16-trioxo-9-oxa-16λ6-thia-17-azatetracyclo[16.3.1.111,15.02,7]tricosa-1(21),2,4,6,11(23),12,14,18(22),19-nonaene-4-carbonitrile] |
| ≥ 50000 nM | ≥ 10000 nM | O=C1NCCOc2ccccc2-c2cc(c(F)cc2F)NC(=O)c2cc1ccc2O [Compound 12, 21,23-difluoro-16-hydroxy-8-oxa-11,19-diazatetracyclo[18.3.1.1^13,17.0^2,7]pentacosa-1(23),2,4,6,13,15,17(25),20(24),21-nonaene-12,18-dione] |
| < 300 nM | < 20 nM | O=C1Cc2cc(Cl)c(O)c(c2)S(=O)(=O)Nc2cc(c(F)cc2F)-c2ccccc2CO1 [Compound 68, 14-chloro-20,22-difluoro-15-hydroxy-17,17-dioxo-9-oxa-17λ6-thia-18-azatetracyclo[17.3.1.112,16.02,7]tetracosa-1(22),2(7),3,5,12(24),13,15,19(23),20-nonaen-10-one] |
| ≥ 50000 nM | 20 to 100 nM | O=C1OCCOc2ccccc2-c2cc(c(F)cc2F)NS(=O)(=O)c2cc1cc(=O)[nH]2 [Compound 38, 21,23-difluoro-18,18-dioxo-8,11-dioxa-18λ6-thia-16,19-diazatetracyclo[18.3.1.113,17.02,7]pentacosa-1(23),2(7),3,5,13,17(25),20(24),21-octaene-12,15-dione] |
| ≥ 50000 nM | 20 to 100 nM | O=C1OCCCn2c(cc3ccccc32)-c2cc(c(F)cc2F)NS(=O)(=O)c2cc1cc(Cl)c2O [Compound 27, 18-chloro-24,26-difluoro-19-hydroxy-14-oxa-21lambda6-thia-10,22-diazapentacyclo[21.3.1.1^16,20.0^2,10.0^4,9]octacosa-1(27),2,4,6,8,16,18,20(28),23,25-decaene-15,21,21-trione] |
| < 300 nM | 20 to 100 nM | CC1CCOC(=O)c2cc(Cl)c(O)c(c2)S(=O)(=O)Nc2cc(c(F)cc2F)-c2ccccc21 (single isomer, unassigned) [Compound 45, 15-chloro-21,23-difluoro-16-hydroxy-8-methyl-18,18-dioxo-11-oxa-18λ6-thia-19-azatetracyclo[18.3.1.113,17.02,7]pentacosa-1(23),2(7),3,5,13,15,17(25),20(24),21-nonaen-12-one] |
| ≥ 50000 nM | 20 to 100 nM | O=C1OCC[C@H]2CCCN2c2ccc(F)c(c2)NS(=O)(=O)c2cc1cc(Cl)c2O [Compound 70, (6R)-13-chloro-19-fluoro-14-hydroxy-16,16-dioxo-9-oxa-16%6-thia-2,17-diazatetracyclo[16.3.1.111,15.02,6]tricosa-1(21),11(23),12,14,18(22),19-hexaen-10-one] |
| 300 to 1000 nM | 100 to 10000 nM | O=C1OCC2Cc3cccc(c3O2)-c2cc(c(F)cc2F)NS(=O)(=O)c2cc1cc(Cl)c2O (single isomer, unassigned) [Compound 40, 15-chloro-21,23-difluoro-16-hydroxy-18,18-dioxo-8,11-dioxa-18λ6-thia-19-azapentacyclo[18.3.1.16,9.113,17.02,7]hexacosa-1(23),2(7),3,5,13,15,17(25),20(24),21-nonaen-12-one] |
| < 300 nM | < 20 nM | Cc1cc(F)c2cc1-c1ccccc1OCCOC(=O)c1cc(Cl)c(O)c(c1)S(=O)(=O)N2 [Compound 50, 15-chloro-21-fluoro-16-hydroxy-23-methyl-18,18-dioxo-8,11-dioxa-18λ6-thia-19-azatetracyclo[18.3.1.113,17.02,7]pentacosa-1(23),2(7),3,5,13(25),14,16,20(24),21-nonaen-12-one] |
| < 300 nM | 20 to 100 nM | O=C1OCCOc2ccccc2-c2ccc(C(F)(F)F)c(c2)NS(=O)(=O)c2cc1cc(Cl)c2O [Compound 58, 15-chloro-16-hydroxy-18,18-dioxo-21-(trifluoromethyl)-8,11-dioxa-18λ6-thia-19-azatetracyclo[18.3.1.113,17.02,7]pentacosa-1(24),2(7),3,5,13(25),14,16,20,22-nonaen-12-one] |
| < 300 nM | < 20 nM | O=C1OCCOc2cc(F)ccc2-c2ccc(F)c(c2)NS(=O)(=O)c2cc1cc(Cl)c2O [Compound 48, 15-chloro-5,21-difluoro-16-hydroxy-18,18-dioxo-8,11-dioxa-18λ6-thia-19-azatetracyclo[18.3.1.113,17.02,7]pentacosa-1(23),2(7),3,5,13(25),14,16,20(24),21-nonaen-12-one] |
| 1000 to 50000 nM | < 20 nM | O=S1(=O)Nc2cc(c(F)cc2F)-c2ccccc2OCCn2cnnc2-c2cc(Cl)c(O)c1c2 [Compound 77, 25-chloro-17,19-difluoro-22,22-dioxo-9-oxa-2λ6-thia-3,4,6,21-tetrazapentacyclo[21.3.1.116,20.02,6.010,15]octacosa-1(26),2,4,10,12,14,16(28),17,19,23(27),24-undecaen-24-ol] |
| ≥ 50000 nM | 100 to 10000 nM | O=C1NCc2ncccc2-c2cc(c(F)cc2F)NS(=O)(=O)c2cc1cc(Cl)c2O [Compound 90, 13-chloro-19,21-difluoro-14-hydroxy-16,16-dioxo-16λ6-thia-6,9,17-triazatetracyclo[16.3.1.111,15.02,7]tricosa-1(22),2,4,6,11,13,15(23),18,20-nonaen-10-one] |
| ≥ 50000 nM | 100 to 10000 nM | O=C1OCCOc2cc3cn[nH]c3cc2-c2cc(c(F)cc2F)NS(=O)(=O)c2cc1cc(Cl)c2O [Compound 53, 18-chloro-24,26-difluoro-19-hydroxy-21,21-dioxo-11,14-dioxa-21λ6-thia-5,6,22-triazapentacyclo[21.3.1.116,20.02,10.04,8]octacosa-1(27),2(10),3,6,8,16(28),17,19,23,25-decaen-15-one] |
| ≥ 50000 nM | 100 to 10000 nM | O=C1OCCOc2ccccc2-c2ccc(F)c(c2F)NS(=O)(=O)c2cc1cc(Cl)c2O [Compound 51, 15-chloro-21,24-difluoro-16-hydroxy-18,18-dioxo-8,11-dioxa-18λ6-thia-19-azatetracyclo[18.3.1.113,17.02,7]pentacosa-1(23),2(7),3,5,13(25),14,16,20(24),21-nonaen-12-one] |
| < 300 nM | 100 to 10000 nM | O=C1OCc2ccccc2-c2ccc(F)c(c2)NS(=O)(=O)c2cc1cc(Cl)c2O [Compound 84, 13-chloro-19-fluoro-14-hydroxy-16,16-dioxo-9-oxa-16λ6-thia-17-azatetracyclo[16.3.1.111,15.02,7]tricosa-1(21),2(7),3,5,11(23),12,14,18(22),19-nonaen-10-one] |
